According to PMC7224190, “Pharmacological inhibition of PRMT7 links arginine monomethylation to the cellular stress response” (Nature Communications, 2020):

Tests used:
Assay in all cases: biochemical
Parameters in all cases: radiometric methyltransferase selectivity assay with tritiated SAM, per cent activity
Conditions in all cases: read-out: % of control remaining
PRMT8 = PRMT8 (Homo sapiens, UniProt Q9NR22)
Method in brief: (§1)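 Radiometric methyltransferase assays with ³H-SAM and substrate near apparent Km, compound tested at 1 and 10 μM. Methyl incorporation into biotinylated substrate read by scintillation proximity after guanidine quench; no-compound = 100%, no-enzyme = 0% activity.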

PRMT9 = target: T1, PRMT9 (Homo sapiens, UniProt Q6P2P2)
T1 sequence (Q6P2P2 1-845): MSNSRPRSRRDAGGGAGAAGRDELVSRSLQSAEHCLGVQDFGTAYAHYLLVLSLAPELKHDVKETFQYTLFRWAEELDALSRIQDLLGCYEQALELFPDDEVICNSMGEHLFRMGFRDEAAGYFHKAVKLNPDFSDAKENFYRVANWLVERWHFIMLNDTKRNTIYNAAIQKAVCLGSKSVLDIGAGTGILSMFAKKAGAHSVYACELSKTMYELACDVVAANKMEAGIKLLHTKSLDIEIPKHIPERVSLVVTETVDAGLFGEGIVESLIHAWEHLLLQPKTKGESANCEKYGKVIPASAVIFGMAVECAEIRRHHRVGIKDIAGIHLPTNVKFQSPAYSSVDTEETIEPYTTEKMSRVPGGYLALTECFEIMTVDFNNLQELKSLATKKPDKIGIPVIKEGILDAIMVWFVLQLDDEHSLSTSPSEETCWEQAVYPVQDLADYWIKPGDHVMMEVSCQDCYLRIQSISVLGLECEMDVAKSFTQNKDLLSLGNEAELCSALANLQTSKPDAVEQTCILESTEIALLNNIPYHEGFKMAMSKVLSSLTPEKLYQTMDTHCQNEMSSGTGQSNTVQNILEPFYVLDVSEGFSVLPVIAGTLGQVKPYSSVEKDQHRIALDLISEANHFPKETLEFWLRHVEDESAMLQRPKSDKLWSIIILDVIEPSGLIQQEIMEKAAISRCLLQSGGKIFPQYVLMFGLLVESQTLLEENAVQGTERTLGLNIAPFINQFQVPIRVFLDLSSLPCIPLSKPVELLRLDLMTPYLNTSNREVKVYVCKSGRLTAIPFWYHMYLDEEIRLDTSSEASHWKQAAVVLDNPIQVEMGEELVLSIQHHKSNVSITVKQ
Method in brief: as §1

PRMT1 = PRMT1 (Homo sapiens, UniProt Q99873)
Sequence of PRMT1 (Q99873 whole entry): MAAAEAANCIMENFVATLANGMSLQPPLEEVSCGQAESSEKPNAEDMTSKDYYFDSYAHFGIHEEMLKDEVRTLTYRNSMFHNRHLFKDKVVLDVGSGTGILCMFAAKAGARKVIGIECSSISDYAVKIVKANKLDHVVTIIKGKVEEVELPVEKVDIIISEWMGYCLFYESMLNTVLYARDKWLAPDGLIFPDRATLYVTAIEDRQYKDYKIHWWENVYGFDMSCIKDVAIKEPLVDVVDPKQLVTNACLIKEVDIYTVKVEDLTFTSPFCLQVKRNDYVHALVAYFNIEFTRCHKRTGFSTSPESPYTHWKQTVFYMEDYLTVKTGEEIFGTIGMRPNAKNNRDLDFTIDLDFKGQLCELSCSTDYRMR
Method in brief: as §1

DNMT3A/3L = DNMT3A/3L (Homo sapiens, UniProt Q9Y6K1)
Sequence of DNMT3A/3L (Q9Y6K1 whole entry, looked up): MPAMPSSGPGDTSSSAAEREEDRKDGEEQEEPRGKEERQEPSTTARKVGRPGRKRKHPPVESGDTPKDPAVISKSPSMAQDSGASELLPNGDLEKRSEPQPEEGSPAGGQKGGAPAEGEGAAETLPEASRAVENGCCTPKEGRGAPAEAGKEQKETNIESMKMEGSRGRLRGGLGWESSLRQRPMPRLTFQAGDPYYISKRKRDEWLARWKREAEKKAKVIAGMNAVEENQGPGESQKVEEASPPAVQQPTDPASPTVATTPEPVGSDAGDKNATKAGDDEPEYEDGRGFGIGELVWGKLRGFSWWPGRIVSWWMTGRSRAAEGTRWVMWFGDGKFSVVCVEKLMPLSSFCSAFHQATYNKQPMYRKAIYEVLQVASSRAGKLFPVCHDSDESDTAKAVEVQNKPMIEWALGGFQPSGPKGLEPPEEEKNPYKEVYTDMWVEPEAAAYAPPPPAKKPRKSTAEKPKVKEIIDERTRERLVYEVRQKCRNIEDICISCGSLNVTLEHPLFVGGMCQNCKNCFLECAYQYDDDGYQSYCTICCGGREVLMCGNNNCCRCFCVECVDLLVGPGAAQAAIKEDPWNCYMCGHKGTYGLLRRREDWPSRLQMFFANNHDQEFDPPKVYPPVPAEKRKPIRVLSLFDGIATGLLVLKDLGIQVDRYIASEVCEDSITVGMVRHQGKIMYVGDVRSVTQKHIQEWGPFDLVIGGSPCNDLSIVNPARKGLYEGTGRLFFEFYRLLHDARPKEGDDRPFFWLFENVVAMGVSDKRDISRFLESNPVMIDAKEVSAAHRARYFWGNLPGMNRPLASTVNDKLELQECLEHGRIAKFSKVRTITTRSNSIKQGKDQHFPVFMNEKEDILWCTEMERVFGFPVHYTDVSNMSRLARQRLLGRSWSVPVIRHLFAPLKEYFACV
Sequence of DNMT3A/3L (Q9UJW3 whole entry partner): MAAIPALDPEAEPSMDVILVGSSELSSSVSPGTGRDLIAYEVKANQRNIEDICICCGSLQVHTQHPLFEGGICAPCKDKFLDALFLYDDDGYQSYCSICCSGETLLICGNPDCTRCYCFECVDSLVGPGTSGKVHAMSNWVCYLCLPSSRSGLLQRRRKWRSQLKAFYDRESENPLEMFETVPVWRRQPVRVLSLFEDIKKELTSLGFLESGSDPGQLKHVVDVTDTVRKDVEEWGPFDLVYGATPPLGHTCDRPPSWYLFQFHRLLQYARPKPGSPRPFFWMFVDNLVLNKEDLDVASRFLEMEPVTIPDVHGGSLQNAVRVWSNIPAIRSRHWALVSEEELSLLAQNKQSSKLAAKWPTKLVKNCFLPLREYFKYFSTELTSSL

PRDM9 = PRDM9 (Homo sapiens, UniProt Q9NQV7)
Sequence of PRDM9 (Q9NQV7 whole entry): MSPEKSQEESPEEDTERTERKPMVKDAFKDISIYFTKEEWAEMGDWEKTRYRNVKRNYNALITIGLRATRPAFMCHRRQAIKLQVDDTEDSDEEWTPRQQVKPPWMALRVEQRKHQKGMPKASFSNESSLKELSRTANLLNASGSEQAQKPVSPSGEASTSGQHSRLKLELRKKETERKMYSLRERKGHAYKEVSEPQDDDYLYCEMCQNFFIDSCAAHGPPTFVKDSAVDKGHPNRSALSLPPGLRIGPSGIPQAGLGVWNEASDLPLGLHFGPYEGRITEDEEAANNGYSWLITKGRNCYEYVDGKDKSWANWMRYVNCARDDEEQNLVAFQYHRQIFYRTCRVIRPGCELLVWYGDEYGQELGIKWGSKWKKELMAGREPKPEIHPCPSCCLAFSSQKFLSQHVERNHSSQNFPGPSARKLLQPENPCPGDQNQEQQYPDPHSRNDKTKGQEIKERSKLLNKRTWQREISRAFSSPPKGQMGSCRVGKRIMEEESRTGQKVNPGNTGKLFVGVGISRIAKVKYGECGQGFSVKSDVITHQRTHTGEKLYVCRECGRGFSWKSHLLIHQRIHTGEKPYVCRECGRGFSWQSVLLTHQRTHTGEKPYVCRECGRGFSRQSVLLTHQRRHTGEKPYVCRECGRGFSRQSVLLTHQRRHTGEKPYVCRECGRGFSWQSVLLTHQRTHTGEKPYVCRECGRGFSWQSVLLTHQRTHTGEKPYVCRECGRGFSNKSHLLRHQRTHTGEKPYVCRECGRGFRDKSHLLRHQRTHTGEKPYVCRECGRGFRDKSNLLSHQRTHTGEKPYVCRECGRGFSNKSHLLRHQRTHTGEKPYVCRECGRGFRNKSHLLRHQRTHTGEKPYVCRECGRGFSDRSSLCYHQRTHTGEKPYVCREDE
Method in brief: as §1

Sequence of PRMT8 (Q9NR22 whole entry): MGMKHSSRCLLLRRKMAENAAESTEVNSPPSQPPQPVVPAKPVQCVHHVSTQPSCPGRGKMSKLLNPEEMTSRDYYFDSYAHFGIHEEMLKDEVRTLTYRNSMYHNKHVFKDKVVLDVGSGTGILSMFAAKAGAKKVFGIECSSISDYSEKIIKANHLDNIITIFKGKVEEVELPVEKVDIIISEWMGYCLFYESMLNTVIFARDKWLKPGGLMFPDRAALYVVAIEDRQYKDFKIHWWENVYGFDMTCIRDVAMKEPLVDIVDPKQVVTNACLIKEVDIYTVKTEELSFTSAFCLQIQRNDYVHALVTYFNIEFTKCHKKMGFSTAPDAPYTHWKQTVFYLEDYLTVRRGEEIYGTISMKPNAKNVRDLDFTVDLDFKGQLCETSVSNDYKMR

Row | SMILES | remaining activity at 1 µM (PRMT8) [%] | remaining activity at 10 µM (PRMT8) [%] | remaining activity at 1 µM (PRMT9) [%] | remaining activity at 10 µM (PRMT9) [%] | remaining activity at 1 µM (PRMT1) [%] | remaining activity at 10 µM (PRMT1) [%] | remaining activity at 1 µM (DNMT3A/3L) [%] | remaining activity at 10 µM (DNMT3A/3L) [%] | remaining activity at 1 µM (PRDM9) [%] | remaining activity at 10 µM (PRDM9) [%]
1 | CC1(C)O[C@@H]2[C@H](O1)[C@@H](CSCCCCNCc1cccc(-c3ccc(Cl)cc3)c1)O[C@H]2n1cnc2c(N)ncnc21 [SGC8158N] | 97 | 97 | 106 | 95 | 94 | 91 | 100 | 99 | 101 | 98
2 | Nc1ncnc2c1ncn2[C@@H]1O[C@H](CSCCCCNCc2cccc(-c3ccc(Cl)cc3)c2)[C@@H](O)[C@H]1O [SGC8158] | 92 | 45 | 19 | 4 | 104 | 67 | 100 | 99 | 106 | 96
